The source of these data is US12544372B2, “Methods of treating rheumatoid arthritis, chronic spontaneous urticaria, and systemic lupus erythematosis using an inhibitor of Bruton's tyrosine kinase” (Genentech, Inc., priority 2019, dated 2026).

This experiment relates to patients with refractory chronic spontaneous urticaria. Nature of the experiment: Phase II CSU study (Cohorts 1 and 2): UAS7, weekly itch, weekly hives. It counts as in vivo, human. From the text:
A Phase II, Multicenter, Randomized, Double-Blind, Placebo-Controlled Pilot and Dose-Ranging Study of Fenebrutinib in Patients with Refractory Chronic Spontaneous Urticaria (CSU)
This study was designed to evaluate the efficacy and safety of fenebrutinib compared with placebo as add-on therapy for the treatment of adult patients 18-75 years old who have been diagnosed with CSU and who remain symptomatic despite treatment with H1 antihistamines. Specific objectives and corresponding endpoints for the study are outlined below.
This pilot and dose-ranging study is a multicenter, randomized, double-blind, placebo-controlled, parallel-group study of the efficacy and safety of fenebrutinib as add-on therapy for the treatment of adult patients 18-75 years old who have been diagnosed with CSU and who remain symptomatic despite treatment with H1 antihistamines (including doses up to 4 times the approved dose per local treatment guidelines). The study consists of two cohorts. Cohort 1 enrolled 41 patients across multiple sites. After screening, eligible patients were randomly allocated in a ˜2:1 ratio to receive fenebrutinib 200 mg orally (PO) twice daily (BID) (n=28) or matching placebo (n=13) for 8 weeks and maintain stable doses of standard-of-care H1 antihistamine therapy throughout the study. A dose-ranging cohort, Cohort 2, enrolled approximately 120 patients randomly allocated in a 1:1:1:1 ratio received 50 mg PO daily (QD), 150 mg PO QD, 200 mg PO BID of GDC-0853, or placebo, respectively, for 8 weeks while maintaining stable doses of standard-of-care H1 antihistamine therapy throughout the study.
Both cohorts consist of three study periods over 14 weeks: (i) a screening period (Day −14 to Day −1), (ii) a treatment period [Day 1 to Day 57 (Week 0 to Week 8)], and (iii) a follow-up period [Day 57 to Day 85 (Week 8 to Week 12)].
The primary efficacy endpoint was measured at Week 8 (Day 57). Patients must have maintained stable doses of their pre-randomization H1 antihistamine therapy throughout the treatment period. After completion of the 8-week treatment period, all patients in both cohorts will enter a 4-week safety follow-up period in which no fenebrutinib treatment is given as patients maintain stable doses of their pre-randomization H1 antihistamine therapy.
The primary efficacy endpoint was the change in baseline in the UAS7 at Week 8 (Day 57). The change in the UAS7 (Table 9) is a summation of the average daily (a.m./p.m.) scores on the UAS (range: 0-6), which is a composite diary score with numeric severity intensity ratings on a scale of 0-3 (0=none to 3=intense/severe) for two domains: the intensity of the itch and the number of wheals/hives. The UAS is recorded by the patient twice daily (morning and evening) in the patient Urticaria Patient Daily eDiary.
Continuous longitudinal efficacy endpoints will be analyzed using a mixed model for repeated measures (MMRM) and descriptive statistics as appropriate. Additional model covariates will include baseline UAS7 and its interaction with visit. Missing data will be handled by the model under the missing-at-random assumption without need for imputation.
The secondary efficacy measurements are as described above in the “Study Objectives” section of this Example 2, and apply the UAS7 score and the weekly itch score measurement. Weekly itch scores are measured as part of the study patient's Urticaria Patient Daily eDiary.

Where [1] appears, read: Cohort 1, 200 mg BID vs placebo.

Take `C[C@H]1CN(C2COC2)CCN1c1ccc(Nc2cc(-c3ccnc(N4CCn5c(cc6c5CC(C)(C)C6)C4=O)c3CO)cn(C)c2=O)nc1` [fenebrutinib, (S)-2-(3′-(hydroxymethyl)-1-methyl-5-((5-(2-methyl-4-(oxetan-3-yl)piperazin-1-yl)pyridin-2-yl)amino)-6-oxo-1,6-dihydro-[3,4′-bipyridin]-2′-yl)-7,7-dimethyl-2,3,4,6,7,8-hexahydro-1H-cyclopenta[4,5]pyrrolo[1,2-a]pyrazin-1-one]: for the setting “Cohort 1, 200 mg BID”, the “UAS7 - Change from BL to Week 4, Mean (SD)” value is on record as −21.1 (11.3); the “UAS7 - Change from BL to Week 4, Median” value is −22.5; the “UAS7 - Change from BL to Week 8, Mean (SD)” value is on record as −21.6 (11.8); the “UAS7 - Change from BL to Week 8, Median” value is on record as −23.0. For the same molecule, where the note is “Cohort 1, 200 mg BID”, the “Weekly Hive Score - Change from BL to Week 4, Mean (SD)” value is recorded as −11.6 (6.8); the “Weekly Hive Score - Change from BL to Week 4, Median” value is reported as −14.0; the “Weekly Hive Score - Change from BL to Week 8, Mean (SD)” value is listed as −12.2 (7.1); the “Weekly Hive Score - Change from BL to Week 8, Median” value is listed as −14.0. For the same molecule, under “Cohort 1, 200 mg BID”, the “Weekly Itch Severity - Change from BL to Week 4, Mean (SD)” value is reported as −9.5 (5.4); the “Weekly Itch Severity - Change from BL to Week 4, Median” value was −9.0; the “Weekly Itch Severity - Change from BL to Week 8, Mean (SD)” value is −9.4 (5.6); the “Weekly Itch Severity - Change from BL to Week 8, Median” value is given as −9.0. Besides, under setting [1], the “UAS7 - Change from BL to Week 4, Treatment difference in LS means, 90% CI” value is listed as −12.5 (−18.9, −6.1) 0.002; the “UAS7 - Change from BL to Week 8, Treatment difference in LS means, 90% CI” value is recorded as −4.3 (−11.3, 2.7) 0.305; the “Weekly Hive Score - Change from BL to Week 4, Treatment difference in LS means, 90% CI” value is −7.5 (−11.2, −3.7) 0.002; the “Weekly Hive Score - Change from BL to Week 8, Treatment difference in LS means, 90% CI” value is listed as −2.8 (−6.9, 1.4) 0.269. For the same molecule, under setting [1], the “Weekly Itch Severity - Change from BL to Week 4, Treatment difference in LS means, 90% CI” value is listed as −5.5 (−8.5, −2.6) 0.003 and the “Weekly Itch Severity - Change from BL to Week 8, Treatment difference in LS means, 90% CI” value is reported as −1.3 (−4.5, 1.8) 0.479. Besides, under “Cohort 1, 200 mg BID, Week 4”, the “patients well-controlled (UAS7≤6)” value turned out to be 64% and the “well-controlled patients, % treatment difference over placebo” value was found to be 48.6%. For the same molecule, where the note is “Cohort 1, 200 mg BID, Week 8”, the “patients well-controlled (UAS7≤6)” value is 65% and the “well-controlled patients, % treatment difference over placebo” value is on record as 31.9%. Also, under “Cohort 1 and Cohort 2, each treatment group, all comers, Week 8”, the “weekly itch scores (treatment difference in LS means)” value is on record as “reduced weekly itch scores in each group”.
